Measurements taken from patent US7776558B2, “Human G protein-coupled receptor and modulators thereof for the treatment of cell death-related disorders” (Arena Pharmaceuticals, Inc., priority 2003, dated 2010).
Where no end group is shown, it is not given here.

How the values were obtained:
[1] = system: serum-deprived differentiated SH-SY5Y cells; test: Cell death of serum-deprived differentiated SH-SY5Y cells; format: cell-based, human; conditions: serum-free medium 6 days; LDH assay (panel A) or Trypan Blue staining (panel B); FIG. 10
Procedure: Briefly, SH-SY5Y cells were differentiated into neuronal-like cells by treatment with retinoic acid (10 μM) for five days followed by treatment with BDNF (10 ng/ml) for two days. […] Cell viability was determined by lactate dehydrogenase (LDH) assay (Roche, Indianapolis, Ind.; catalog no. 1644793) or by trypan blue staining. LDH is a stable cytoplasmic enzyme present in all cells which is rapidly released upon damage to the plasma membrane. The level of LDH is inversely proportional to the number of viable cells. The LDH assay was carried out as per manufacturer's instructions.

[2] = system: differentiated SH-SY5Y cells; test: Aβ-induced cell death of differentiated SH-SY5Y cells; format: cell-based, human; conditions: AB1-42 80 μg/ml; Humanin 1 μM; Compound 1 20 μM, 5 μM or 1 μM; Trypan Blue staining; FIG. 12
Procedure: SH-SY5Y is a human neuroblastoma cell line. Differentiation of SH-SY5Y into neuronal-like cells was carried out by treatment with retinoic acid (10 μM) for five days followed by treatment with BDNF (10 ng/ml) for two days. Aβ (AB1-42) was purchased from Biosource International (Camarillo, Calif.; catalog no. 03-111).
The assay was carried out in serum-free medium. AB1-42 was used at 80 μg/ml. […] Compound 1 was used at either 20 μM, 5 μM or 1 μM.
Cell survival was determined by Trypan Blue staining.

[3] = target: T1, FPR (Homo sapiens, UniProt P21462); test: [35S]GTPγS binding assay, membranes of transiently transfected CHO cells; format: biochemical; design: Full-Length Cloning of Human GPCRs; expressed in transfected cells; host or cells: CHO-K1 cells, transient, pCMV; plasma membranes; conditions: FIG. 3 panel C; up to a dose of 10 μM
T1 sequence (P21462 1-350): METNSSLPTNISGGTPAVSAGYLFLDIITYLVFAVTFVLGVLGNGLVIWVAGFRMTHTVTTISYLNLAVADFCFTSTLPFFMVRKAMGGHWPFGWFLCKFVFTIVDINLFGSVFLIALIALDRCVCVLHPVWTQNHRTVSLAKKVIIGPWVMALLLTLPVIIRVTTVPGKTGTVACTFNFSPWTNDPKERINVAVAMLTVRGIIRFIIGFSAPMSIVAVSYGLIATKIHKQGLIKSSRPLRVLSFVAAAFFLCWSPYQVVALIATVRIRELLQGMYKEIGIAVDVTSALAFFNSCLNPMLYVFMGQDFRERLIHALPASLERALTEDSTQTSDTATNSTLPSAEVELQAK
Procedure: The plasmids used were HA/V5 doubled tagged endogenous FPRL2 in pCMV, HA/V5 double-tagged endogenous FPRL1 in pCMV, HAN5 double-tagged endogenous FPR in pCMV, and pCMV alone (See, Example 1). Transient transfections were carried out on CHO-K1 cells. To a 15 cm dish of confluent cells, 12 μg of plasmid DNA and 60 μl Lipofectamine (Invitrogen, Carlsbad, Calif.) were added to each plate. Twenty-four hours post-infection, plasma membranes were isolated as described below. Assays were then run as described below.
“Membrane Scrape Buffer” consists of 20 mM HEPES and 10 mM EDTA, pH 7.4; “Membrane Wash Buffer” consists of […] and 0.1 mM EDTA, pH 7.4; “Binding. Buffer” consists of 20 mM HEPES, 100 mM NaCl, and 10 mM MgCl2, pH 7.4.
All materials were kept on ice throughout the procedure. Firstly, the media was aspirated from a confluent monolayer of transfected cells, followed by rinse with 10 ml cold PBS, followed by aspiration. Thereafter, 10 ml of Membrane Scrape Buffer was added to scrape cells; this was followed by transfer of cellular extract into 50 ml centrifuge tubes (centrifuged at 20,000 rpm for 17 minutes at 4° C.). […]
First, 100 μl GDP Buffer was added to each well of a Wallac Scintistrip™ (Wallac). […] The plates were then read on a Wallac 1450 using setting “Prot. #37” (as per manufacturer instructions).

[4] = system: human cerebrovascular smooth muscle cells; conditions: cited from earlier work

Molecule | Inhibition of cell death of serum-deprived SH-SY5Y cells [1] | Protection from Aβ-induced cell death [2] | Activity at FPR, promoted [35S]GTPγS binding [3] | Rescue from Aβ-induced toxicity [4]
CC(C)c1ccc2c(c1)CCC1C(C)(C(N)=O)CCCC21C (stereo not shown) [Compound 1, 7-Isopropyl-1,4a-dimethyl-1,2,3,4,4a,9,10,10a-octahydro-phenanthrene-1-carboxylic acid amide] | inhibit cell death | protect differentiated SH-SY5Y cells from Aβ-induced cell death |  | 
CC[C@H](C)[C@H](NC(=O)[C@H](CCC(=O)O)NC(=O)[C@H](CO)NC(=O)[C@@H](NC(=O)[C@H](CC(C)C)NC(=O)[C@H](CC(C)C)NC(=O)[C@H](CC(C)C)NC(=O)[C@H](CC(C)C)NC(=O)[C@H](CS)NC(=O)[C@H](CO)NC(=O)[C@H](Cc1ccccc1)NC(=O)CNC(=O)[C@H](CCCNC(=N)N)NC(=O)[C@@H]1CCCN1C(=O)[C@H](C)NC(=O)[C@@H](N)CCSC)[C@@H](C)O)C(=O)N[C@@H](CC(=O)O)C(=O)N[C@@H](CC(C)C)C(=O)N1CCC[C@H]1C(=O)N[C@H](C(=O)N[C@@H](CCCCN)C(=O)N[C@@H](CCCNC(=N)N)C(=O)N[C@@H](CCCNC(=N)N)C(=O)N[C@@H](C)C(=O)O)C(C)C [Humanin] | inhibit cell death | protect differentiated SH-SY5Y cells from Aβ-induced cell death | Neither Humanin nor [Gly14]-Humanin evidence significant activity | rescues human cerebrovascular smooth muscle cells from Aβ-induced toxicity
MAPRGFSCLLLLTGEIDLPVKRRA [[Gly14]-Humanin] |  |  | Neither Humanin nor [Gly14]-Humanin evidence significant activity | 
